# Read-outs that look alike come from different tables or passages of the source.
# Tests used:
# Experiment in all cases: Minimum inhibitory concentration (MIC) in vitro in broth containing phenol red and glucose
# Assay type in all cases: cell-based
# [1] = system: Staphylococcus aureus; settings: read-out: Werte der Mindesthemmkonzentration [MIC-Werte]
# Description: (§1) Die Mindesthemmkonzentration (MIC-Werte) der Kombination der 3 obigen Wirkstoffe und der einzelnen obigen Wirkstoffe wurden in vitro gegen die Bakterienstämme Escherichia coli 494, Bordatella bronchiseptica, Staphylococcus aureus und Listeria monocytogenes in einer Phenolrot und Glucose enthaltenden Brühe [Hersteller: Firma Difca] bestimmt.
# [2] = system: Listeria monocytogenes; settings: read-out: Werte der Mindesthemmkonzentration [MIC-Werte]
# Description: as §1
# [3] = system: Bordatella bronchiseptica; settings: read-out: Werte der Mindesthemmkonzentration [MIC-Werte]
# Description: as §1
# [4] = system: Gegen Chloramphenicol resistenter Stamm Escherichia coli 494; settings: single substance; inhibits bacterial growth for 24 hours; chloramphenicol-resistant Escherichia coli 494; read-out: Werte der Mindesthemmkonzentration [MIC-Werte]
# Description: as §1
# [5] = single substance, inhibits bacterial growth for 24 hours
# [6] = single substance, inhibits bacterial growth for 24 hours, Bordatella bronchiseptica
"MIC [1, 5] [µg/mL]","MIC [2, 5] [µg/mL]","MIC [3, 6] [µg/mL]",MIC [4] [µg/mL],SMILES,MIC ([1]; 24 h) [µg/mL],MIC ([2]; 24 h) [µg/mL],MIC ([3]; 24 h) [µg/mL]
5,5,5,200,"Cc1ccc2c(Cl)cc(Cl)c(O)c2n1 [Chlorchinaldol, 2-(Methyl)-5,7-di-(chlor)-8-(hydroxy)-chinolin]",–,–,–
100,50,50,25,"COc1cc(Cc2cnc(N)nc2N)cc(OC)c1OC [Trimethoprim, 2,4-Diamino-5-[3', 4', 5'-tri-(methoxy)-benzyl]-pyrimidin]",–,–,–

SMILES,"MIC [1, 5] [µg/mL]","MIC [2, 5] [µg/mL]","MIC [3, 6] [µg/mL]",MIC [4] [µg/mL],MIC ([1]; 24 h) [µg/mL],MIC ([2]; 24 h) [µg/mL],MIC ([3]; 24 h) [µg/mL]
"CN(C)CCCN1c2ccccc2Sc2ccc(Cl)cc21 [Chlorpromazin, 2-Chlor-10-[3-(dimethylamino)-propyl]-phenothiazin]",–,–,–,50,25,25,200

# — patent EP0123157B1, “Medicaments and/or foodstuff concentrates with an anti-bacterial activity” (EGIS GYOGYSZERGYAR, priority 1983, dated 1984)
